In ChEMBL document CHEMBL3885861, “Open TG-GATES”:

Organism: Rattus norvegicus
Experiment: Open TG-GATES - Regimen: Daily Repeat
Type: toxicity, organism-based, Sprague-Dawley
Parameters: regimen Daily Repeat, gender Male, age 6 weeks
Details: in vivo, po, 30 mg/kg, route gavage, dose level Middle; for APTT / Bas / Eos / Fbg / Hb / Ht / Lym / MCH / MCHC / MCV / Mono / Neu / PT / Plat / RBC / Ret / WBC: tissue Blood; for KIDNEY_L / KIDNEY_R / KIDNEY_TOTAL: tissue Kidney; for LIVER: tissue Liver; for A/G / ALP / ALT / AST / BUN / CRE / Ca / Cl / DBIL / GLC / IP / K / LDH / Na / PL / RALB / TBIL / TC / TG / TP / gamma-GTP: tissue Plasma

Structure (SMILES): CN(C)CCN(Cc1cccs1)c1ccccn1
- TERMINAL_BW (72 h, time 3 day): 210.2 g
- APTT (72 h, time 3 day): 20.9 s
- Bas (72 h, time 3 day): 0%
- Eos (72 h, time 3 day): 0.6%
- Fbg (72 h, time 3 day): 325.4 mg/dL
- Hb (72 h, time 3 day): 13.2 g/dL
- Ht (72 h, time 3 day): 38.8%
- Lym (72 h, time 3 day): 80%
- MCH (72 h, time 3 day): 21.7 pg
- MCHC (72 h, time 3 day): 34%
- MCV (72 h, time 3 day): 63.8 fL
- Mono (72 h, time 3 day): 2%
- Neu (72 h, time 3 day): 16.4%
- PT (72 h, time 3 day): 15.9 s
- Plat (72 h, time 3 day): 116.7 x10_4/uL
- RBC (72 h, time 3 day): 609 x10_4/ul
- Ret (72 h, time 3 day): 6.1%
- WBC (72 h, time 3 day): 94.3 x10_2/uL
- KIDNEY_L (72 h, time 3 day): 1 g
- KIDNEY_R (72 h, time 3 day): 1 g
- KIDNEY_TOTAL (72 h, time 3 day): 2 g
- LIVER (72 h, time 3 day): 10.2 g
- A/G (72 h, time 3 day): 1.2
- ALP (72 h, time 3 day): 1737.4 IU/L
- ALT (72 h, time 3 day): 45.2 IU/L
- AST (72 h, time 3 day): 75.8 IU/L
- BUN (72 h, time 3 day): 15 mg/dL
- CRE (72 h, time 3 day): 0.1 mg/dL
- Ca (72 h, time 3 day): 11 mg/dL
- Cl (72 h, time 3 day): 106.2 meq/L
- DBIL (72 h, time 3 day): 0 mg/dL
- GLC (72 h, time 3 day): 175.4 mg/dL
- IP (72 h, time 3 day): 7.7 mg/dL
- K (72 h, time 3 day): 4.3 meq/L
- LDH (72 h, time 3 day): 224.4 IU/L
- Na (72 h, time 3 day): 142 meq/L
- PL (72 h, time 3 day): 140.8 mg/dL
- RALB (72 h, time 3 day): 2.9 g/dL
- TBIL (72 h, time 3 day): 0.012 mg/dL
- TC (72 h, time 3 day): 72.6 mg/dL
- TG (72 h, time 3 day): 82 mg/dL
- TP (72 h, time 3 day): 5.4 g/dL
- gamma-GTP (72 h, time 3 day): 1.2 IU/L
- TERMINAL_BW ([…], time 7 day): 254.5 g
- TERMINAL_BW ([…], time 14 day): 275 g
- TERMINAL_BW ([…], time 28 day): 322.8 g
- APTT ([…], time 7 day): 20.7 s
- Bas ([…], time 7 day): 0%
- Eos ([…], time 7 day): 0.8%
- Fbg ([…], time 7 day): 304.2 mg/dL
- Hb ([…], time 7 day): 13.2 g/dL
- Ht ([…], time 7 day): 39.1%
- Lym ([…], time 7 day): 78.6%
- MCH ([…], time 7 day): 21.4 pg
- MCHC ([…], time 7 day): 33.7%
- MCV ([…], time 7 day): 63.5 fL
- Mono ([…], time 7 day): 1.6%
- Neu ([…], time 7 day): 18%
- PT ([…], time 7 day): 15.9 s
- Plat ([…], time 7 day): 120.9 x10_4/uL
- RBC ([…], time 7 day): 617 x10_4/ul
- Ret ([…], time 7 day): 6.3%
- WBC ([…], time 7 day): 124 x10_2/uL
- APTT ([…], time 14 day): 21.4 s
- Bas ([…], time 14 day): 0%
- Eos ([…], time 14 day): 1%
- Fbg ([…], time 14 day): 309.6 mg/dL
- Hb ([…], time 14 day): 14.2 g/dL
- Ht ([…], time 14 day): 41.2%
- Lym ([…], time 14 day): 77.8%
- MCH ([…], time 14 day): 20.5 pg
- MCHC ([…], time 14 day): 34.4%
- MCV ([…], time 14 day): 59.6 fL
- Mono ([…], time 14 day): 2.4%
- Neu ([…], time 14 day): 18.6%
- PT ([…], time 14 day): 16.2 s
- Plat ([…], time 14 day): 108.7 x10_4/uL
- RBC ([…], time 14 day): 691.6 x10_4/ul
- Ret ([…], time 14 day): 3.9%
- WBC ([…], time 14 day): 110.7 x10_2/uL
- APTT ([…], time 28 day): 20.7 s
- Bas ([…], time 28 day): 0%
- Eos ([…], time 28 day): 1.4%
- Fbg ([…], time 28 day): 282 mg/dL
- Hb ([…], time 28 day): 14.6 g/dL
- Ht ([…], time 28 day): 42.2%
- Lym ([…], time 28 day): 74.2%
- MCH ([…], time 28 day): 19.2 pg
- MCHC ([…], time 28 day): 34.5%
- MCV ([…], time 28 day): 55.5 fL
- Mono ([…], time 28 day): 2.6%
- Neu ([…], time 28 day): 21.4%
- PT ([…], time 28 day): 16.1 s
- Plat ([…], time 28 day): 106.9 x10_4/uL
- RBC ([…], time 28 day): 760.6 x10_4/ul
- Ret ([…], time 28 day): 2.7%
- WBC ([…], time 28 day): 115.8 x10_2/uL
- KIDNEY_L ([…], time 7 day): 1.1 g
- KIDNEY_R ([…], time 7 day): 1.1 g
- KIDNEY_TOTAL ([…], time 7 day): 2.2 g
- KIDNEY_L ([…], time 14 day): 1.1 g
- KIDNEY_R ([…], time 14 day): 1.2 g
- KIDNEY_TOTAL ([…], time 14 day): 2.3 g
- KIDNEY_L ([…], time 28 day): 1.3 g
- KIDNEY_R ([…], time 28 day): 1.3 g
- KIDNEY_TOTAL ([…], time 28 day): 2.5 g
- LIVER ([…], time 7 day): 11.7 g
- LIVER ([…], time 14 day): 11.9 g
- LIVER ([…], time 28 day): 13.7 g
- A/G ([…], time 7 day): 1.1
- ALP ([…], time 7 day): 1578.6 IU/L
- ALT ([…], time 7 day): 40.4 IU/L
- AST ([…], time 7 day): 69.2 IU/L
- BUN ([…], time 7 day): 17.6 mg/dL
- CRE ([…], time 7 day): 0.2 mg/dL
- Ca ([…], time 7 day): 10.7 mg/dL
- Cl ([…], time 7 day): 107 meq/L
- DBIL ([…], time 7 day): 0 mg/dL
- GLC ([…], time 7 day): 170.4 mg/dL
- IP ([…], time 7 day): 7 mg/dL
- K ([…], time 7 day): 4.3 meq/L
- LDH ([…], time 7 day): 132.4 IU/L
- Na ([…], time 7 day): 144.4 meq/L
- PL ([…], time 7 day): 134.4 mg/dL
- RALB ([…], time 7 day): 2.9 g/dL
- TBIL ([…], time 7 day): 0.012 mg/dL
- TC ([…], time 7 day): 71.4 mg/dL
- TG ([…], time 7 day): 64.8 mg/dL
- TP ([…], time 7 day): 5.4 g/dL
- gamma-GTP ([…], time 7 day): 1.8 IU/L
- A/G ([…], time 14 day): 1.1
- ALP ([…], time 14 day): 1753 IU/L
- ALT ([…], time 14 day): 54.4 IU/L
- AST ([…], time 14 day): 98.2 IU/L
- BUN ([…], time 14 day): 18.8 mg/dL
- CRE ([…], time 14 day): 0.2 mg/dL
- Ca ([…], time 14 day): 10.3 mg/dL
- Cl ([…], time 14 day): 107.8 meq/L
- DBIL ([…], time 14 day): 0.008 mg/dL
- GLC ([…], time 14 day): 166.8 mg/dL
- IP ([…], time 14 day): 6.8 mg/dL
- K ([…], time 14 day): 4.1 meq/L
- LDH ([…], time 14 day): 177.4 IU/L
- Na ([…], time 14 day): 143.8 meq/L
- PL ([…], time 14 day): 131.8 mg/dL
- RALB ([…], time 14 day): 2.9 g/dL
- TBIL ([…], time 14 day): 0.026 mg/dL
- TC ([…], time 14 day): 70.2 mg/dL
- TG ([…], time 14 day): 56 mg/dL
- TP ([…], time 14 day): 5.5 g/dL
- gamma-GTP ([…], time 14 day): 2 IU/L
- A/G ([…], time 28 day): 1.1
- ALP ([…], time 28 day): 1511.8 IU/L
- ALT ([…], time 28 day): 74.6 IU/L
- AST ([…], time 28 day): 129.2 IU/L
- BUN ([…], time 28 day): 17.6 mg/dL
- CRE ([…], time 28 day): 0.2 mg/dL
- Ca ([…], time 28 day): 10.3 mg/dL
- Cl ([…], time 28 day): 107 meq/L
- DBIL ([…], time 28 day): 0.008 mg/dL
- GLC ([…], time 28 day): 169 mg/dL
- IP ([…], time 28 day): 6.2 mg/dL
- K ([…], time 28 day): 4.2 meq/L
- LDH ([…], time 28 day): 182.2 IU/L
- Na ([…], time 28 day): 141.8 meq/L
- PL ([…], time 28 day): 140.4 mg/dL
- RALB ([…], time 28 day): 3 g/dL
- TBIL ([…], time 28 day): 0.022 mg/dL
- TC ([…], time 28 day): 80 mg/dL
- TG ([…], time 28 day): 39.4 mg/dL
- TP ([…], time 28 day): 5.6 g/dL
- gamma-GTP ([…], time 28 day): 2.8 IU/L
